What follows are molecules tested on F. ulcerans ZTP riboswitch SPR construct RNA (RNA, riboswitch) UAUCAGUUAUAUGACUGACGGAACGUGGAAUUAACCACAUGAAGUAUAACGAUGACAAUGCCGACCGUCUGGGCGUUCAUUAGCGGUAUUCCGGAAC … (assay: SPR). Conditions: 150 mM KCl, 10 mM MgCl2; 50 mM HEPES-KOH pH 7.4, 0.005% Tween-20, 5% DMSO; apparent, no saturation, exceeds 1:1 Rmax.

| SMILES | KD |
| --- | --- |
| NC(=O)c1ncn(-c2ccc(-c3cnc[nH]3)cc2)c1N | ~ 900 nM |

The molecules below were run on F. ulcerans ZTP riboswitch ITC construct RNA (aptamer domain) (RNA, riboswitch) UAUCAGUUAUAUGACUGACGGAACGUGGAAUUAACCACAUGAAGUAUAACGAUGACAAUGCCGACCGUCUGGGCG (assay: ITC). Conditions: 150 mM KCl, 10 mM MgCl2; 50 mM HEPES-KOH pH 7.4, 37 °C; table value, text b16 says KD >30 μM.

| SMILES | KD |
| --- | --- |
| COc1ccncc1-n1cnc(C(N)=O)c1N | 4.16 ± 0.68 µM |

Same assay, conditions: 150 mM KCl, 10 mM MgCl2; 50 mM HEPES-KOH pH 7.4, up to 3% DMSO, 37 °C

| SMILES | KD |
| --- | --- |
| NC(=O)c1ncn(-c2cccc(O)c2)c1N | 2.47 ± 0.37 µM |
| CNc1ccc(-n2cnc(C(N)=O)c2N)cn1 | 2.40 ± 0.36 µM |
| COc1ccc(-n2cnc(C(N)=O)c2N)cn1 | 2.45 ± 0.44 µM |
| NC(=O)c1ncn(-c2ccc3ncccc3c2)c1N | 1.28 ± 0.26 µM |
| NC(=O)c1ncn(-c2ccc(-c3ncc[nH]3)nc2)c1N | 3.18 ± 0.44 µM |
| NC(=O)c1ncn(-c2cncnc2)c1N | 1.22 ± 0.45 µM |
| NC(=O)c1ncn(-c2ccc(Cl)nc2)c1N | 2.19 ± 1.4 µM |
| NC(=O)c1ncn(-c2ccc(NCc3ccccc3)nc2)c1N | 13.8 ± 1.5 µM |
| NC(=O)c1ncn(Cc2ccncc2)c1N | 15.0 ± 7.1 µM |
| NC(=O)c1ncn(-c2ccccc2)c1N | 1.84 ± 0.41 µM |
| NC(=O)c1ncn(-c2ccc3cccnc3c2)c1N | 1.36 ± 0.17 µM |
| NC(=O)c1ncn(-c2ccc3[nH]ccc3c2)c1N | 3.20 ± 1.3 µM |
| NC(=O)c1ncn(-c2cnc3cccnc3c2)c1N | 0.864 ± 0.21 µM |
| NC(=O)c1ncn(-c2cnc3ncccc3c2)c1N | 0.778 ± 0.28 µM |
| NC(=O)c1ncn(-c2ccc(-c3cnc[nH]3)cc2)c1N | 1.46 ± 0.21 µM |
| NC(=O)c1ncn(-c2ccc3cc[nH]c3c2)c1N | 4.99 ± 0.64 µM |
| NC(=O)c1cccc(-n2cnc(C(N)=O)c2N)c1 | 3.52 ± 0.60 µM |

Same assay, conditions: 150 mM KCl, 10 mM MgCl2; 50 mM HEPES-KOH pH 7.4, up to 3% DMSO, 37 °C; N.B. (>30 μM or not measurable)

| SMILES | KD |
| --- | --- |
| NC(=O)c1cn(-c2ccncc2)cn1 | > 30 µM |
| NC(=O)c1ncn(-c2cccc3cccnc23)c1N | > 30 µM |
| Cc1ncccc1-n1cnc(C(N)=O)c1N | > 30 µM |
| NC(=O)c1ncn(Cc2ccccc2)c1N | > 30 µM |
| NC(=O)c1ncn(Cc2cnccn2)c1N | > 30 µM |
| NC(=O)c1ncn([C@@H]2CCCNC2)c1N | > 30 µM |
| NC(=O)c1ncn([C@H]2CCCNC2)c1N | > 30 µM |

Same assay, conditions: 150 mM KCl, 10 mM MgCl2; 50 mM HEPES-KOH pH 7.4, up to 3% DMSO, 37 °C; text prints 13.7 ± 7.8

| SMILES | KD |
| --- | --- |
| NC(=O)c1nnn(-c2cccnc2)c1N | 13.5 ± 7.85 µM |

Each molecule was assayed on S. ondontolytica ZTP riboswitch used for crystallography (64-nt) (RNA, riboswitch, 5'-hydroxyl (hammerhead-cleaved, lacks 5'-phosphate)) GGGUCGUGACUGGCGAACAGGUGGGAAACCACCGGGGAGCGACCCUUGCCGCCCGCCUGGGCAA (assay: X-ray crystallography). Conditions: Mg2+; co-crystal structure, 2.2 Å, partially refined.

| SMILES | binding |
| --- | --- |
| NC(=O)c1ncn(-c2cnc3ncccc3c2)c1N | yes |

Same assay, conditions: Mg2+; co-crystal structure, 2.4 Å

| SMILES | binding |
| --- | --- |
| NC(=O)c1ncn(-c2cccnc2)c1N | yes |

— doi:10.1101/2024.09.13.612887 (2024)
